{
  "source": "patent US8691764B2",
  "about": "“Inhibitors of NF-κB activity” (The Research Foundation for the State University of New York, priority 2007, dated 2014)",
  "system": "annexin 1",
  "assay": "Induction of annexin 1 in HT-29 cells, Western blot",
  "assay_type": "cell-based, human",
  "description": "The human pancreatic cancer cell line, BxPC-3, or the colon cancer cell line HT-29, both from ATCC (Manassas, Va.) were maintained and grown in RPMI 1640 or McCoy's 5A medium (Cellgro) supplemented with 10% fetal bovine serum (HyClone) and 1% penicillin/streptomycin (Cellgro) in a humidified incubator at 37° C. and 5% CO2.\nFor the study of induction of annexin 1 by anti-inflammatory agents, the cells were incubated with either NO-ASA or Dex for 3 h. The cell fractions were obtained as described by Andrews and Faller (N. C. Andrews and D. V. Faller, Nucleic Acids Res. 19:2499 (1991)) with modification. Briefly, the cells were pelleted after treatment and washed three times with PBS. The cell pellets were resuspended in ice cold buffer A (10 mM HEPES, pH 7.9, 10 mM KCl, 1.5 mM MgCI2, 0.5 mM DTT, 0.5 mM PMSF) with protease inhibitor cocktail (Sigma) and incubated on ice for 15 min with occasional mixing by gently tapping the tube. The cell lysates were centrifuged up to 5000 rpm for three times. The supernatants were collected as cytoplasmic extracts. Nuclear pellets were washed with buffer A and resuspended in buffer C (20 mM HEPES, pH 7.9, 450 mM NaCl, 1.5 mM MgCI2, 0.2 mM EDTA, 0.5 mM DTT, 0.5 mM PMSF, 25% Glycerol) with protease inhibitor cocktail (Sigma) and incubated on ice for 30 min with occasional mixing to extract nuclear proteins. […]",
  "data": [
    {"substance": "nitric oxide-donating aspirin [NO-ASA]", "values": [
      {"measurement": "expression of annexin 1", "value": "induced"}
    ]}
  ]
}
